Assay results as given in ChEMBL document CHEMBL1129148, “Synthesis and biological evaluation of 4-alkoxy substituted trinems. Part I” (1996).
In brackets after ≈: the same amount, converted by molar mass.

Key:
Type in all cases: functional
[1] = tested on: Escherichia coli; assay: Compound was tested for in vitro antibacterial activity against Escherichia coli 1850E
[2] = tested on: Staphylococcus aureus; assay: Compound was tested for in vitro antibacterial activity against Staphylococcus aureus 853E penicillinase (PCI) producing strain
[3] = tested on: Pseudomonas aeruginosa; assay: Compound was tested for in vitro antibacterial activity against Pseudomonas aeruginosa 1911
[4] = tested on: Bacteroides fragilis; assay: Compound was tested for in vitro antibacterial activity against Bacteroides fragilis 2017
[5] = tested on: Escherichia coli; assay: Compound was tested for in vitro antibacterial activity against Escherichia coli 1919 a beta-lactamase producing strain(TEM 1) with permeable outer membrane
[6] = tested on: Clostridium perfringens; assay: Compound was tested for in vitro antibacterial activity against Clostridium perfringens 615E
[7] = tested on: Streptococcus pneumoniae; assay: Compound was tested for in vitro antibacterial activity against Streptococcus pneumoniae 3512
[8] = tested on: Enterococcus faecalis; assay: Compound was tested for in vitro antibacterial activity against […] faecalis 850

Compound	MIC [1] [µg/mL]	MIC [2] [µg/mL]	MIC [3] [µg/mL]	MIC [4] [µg/mL]	MIC [5] [µg/mL]	MIC [6] [µg/mL]	MIC [7] [µg/mL]	MIC [8] [µg/mL]
C[C@@H](O)[C@H]1C(=O)N2C(C(=O)[O-])=C3[C@@H](OCCO)CCC[C@@H]3[C@H]12.[K+]	0.5	0.5	> 32	0.1	0.5	0.06	0.1	8
COCCO[C@H]1CCC[C@@H]2C1=C(C(=O)[O-])N1C(=O)[C@H]([C@@H](C)O)[C@@H]21.[K+]	> 32	8	> 32	32	32	> 32	8	> 32
C[C@@H](O)[C@H]1C(=O)N2C(C(=O)[O-])=C3[C@@H](OCCF)CCC[C@@H]3[C@H]12.[K+]	4	0.2	> 32	0.2	0.5	≤ 0.01	0.03	4
COCCO[C@H]1CCC[C@H]2C1=C(C(=O)[O-])N1C(=O)[C@H]([C@@H](C)O)[C@@H]21.[K+]	2	0.5	> 32	0.1	0.5	0.03	0.2	2
C[C@@H](O)[C@H]1C(=O)N2C(C(=O)[O-])=C3[C@@H](OCCC#N)CCC[C@@H]3[C@H]12.[K+]	4	0.5	> 32	0.2	1	0.03	0.06	2
C[C@@H](O)[C@H]1C(=O)N2C(C(=O)O)=C(SCCNC=N)C[C@H]12 [IMIPENEM ANHYDROUS]	0.5 (≈ 1.67 µM)	0.1 (≈ 0.334 µM)	4 (≈ 13.4 µM)	0.06 (≈ 0.2 µM)	0.5 (≈ 1.67 µM)	0.03 (≈ 0.1 µM)	< 0.01	2 (≈ 6.68 µM)
CO[C@H]1CCC[C@H]2C1=C(C(=O)[O-])N1C(=O)[C@H]([C@@H](C)O)[C@@H]21.[Na+] [SANFETRINEM SODIUM]	0.5	0.2	> 32	0.06	0.5	0.03	≤ 0.01	1
